Test results taken from US7323454B2, “Etonogestrel esters” (N.V. Organon, priority 2002, dated 2008).

Assay: Pharmacokinetics of etonogestrel esters in the rabbit after one i.m. injection; plasma etonogestrel by LC-MSMS
Type: in vivo
Procedure: For the determination of the pharmacokinetic profile of the different etonogestrel-esters after parenteral application, i.m. application in the castrated rabbit model was chosen instead of s.c. Briefly, rabbits were injected once (day 1) with indicated etonogestrel-esters at 20 mg/kg in arachis oil (with a concentration of 40 mg/ml). At day 1, 2, 3, 4, 5, 6, 7, 8, 10, 12, 14, 21, 28, 35, 49, 63, 77, 92, 106, 120 and 133 blood was collected from the ear arteria, in EDTA-containing tubes. EDTA plasma was prepared (1500 g, 15 min) and stored at −20° C. With LC-MSMS the amount of parent compound (etonogestrel) was determined in these samples. The lower limit of this new assay is 0.5 nmol/l, from 0-250 nmol/l a linear curve was obtained with a correlation coefficient of 0,9998.

[1] = one i.m. injection, 20 mg/kg in arachis oil
[2] = one i.m. injection, 20 mg/kg in arachis oil, parent etonogestrel measured

| Compound | initial peak level of etonogestrel in plasma [2] [nmol/L] | time of initial peak level of etonogestrel [1] | further results |
| --- | --- | --- | --- |
| C#C[C@]1(OC(=O)CCCCCCCC)CC[C@H]2[C@@H]3CCC4=CC(=O)CC[C@@H]4[C@H]3C(=C)C[C@@]21CC [Etonogestrel nonanoate] | – | – | duration with serum levels of etonogestrel above 1 nmol/l (in words) [1]: extended duration; initial peak levels of etonogestrel (in words) [1]: lower peak levels |
| C#C[C@]1(OC(=O)CCCCCC)CC[C@H]2[C@@H]3CCC4=CC(=O)CC[C@@H]4[C@H]3C(=C)C[C@@]21CC [Etonogestrel-heptanoate] | 120 | – | – |
| C#CC1(OC(=O)CCCCCCCCC)CCC2C3CCC4=CC(=O)CCC4C3C(=C)CC21CC (stereo not shown) [etonogestrel decanoate] | 24 | 5 days | – |
| C#C[C@]1(OC(=O)CCCCCCCCCCC)CC[C@H]2[C@@H]3CCC4=CC(=O)CC[C@@H]4[C@H]3C(=C)C[C@@]21CC [etonogestrel dodecanoate] | 9 | 8 days | – |
| C#C[C@]1(OC(=O)CCCCCCCCCCCC)CC[C@H]2[C@@H]3CCC4=CC(=O)CC[C@@H]4[C@H]3C(=C)C[C@@]21CC [etonogestrel tridecanoate] | – | – | initial peak levels of etonogestrel (in words) [1]: no initial levels of etonogestrel were observed |
| C#C[C@]1(OC(=O)CCCCCCCCCC)CC[C@H]2[C@@H]3CCC4=CC(=O)CC[C@@H]4[C@H]3C(=C)C[C@@]21CC [etonogestrel undecanoate] | 13 | eight | duration of action (etonogestrel level above 1 nmol/l) [1]: more than 92 days |
| C#C[C@]1(O)CC[C@H]2[C@@H]3CCC4=CC(=O)CC[C@@H]4[C@H]3C(=C)C[C@@]21CC [etonogestrel, (17α)-13-ethyl-17-hydroxy-11-methylene-18,19-dinorpregn-4-en-20-yn-3-one] | – | – | initial peak level of etonogestrel in plasma (in vivo, 20 mg/kg): 200 nmol/L; time in which etonogestrel levels declined to below 1 nmol/l (in vivo, 20 mg/kg): 28 days |
